Tests used:
skin = test: Irritating skin reactions in volunteers of the in vivo studies; parameters: species or system human; settings: topical emulsion (active principle 4%, retinol 0.15%), bi-daily for 28 days
Method: The active principle is formulated at 4% in an emulsion. Retinol is formulated at 0.15% in an emulsion.
The 2 formulae are tests and 2 groups of volunteers, against a placebo.
The tests have shown the influence of the active principle or of retinol on the appearance of crows-feet wrinkles, after bi-daily application for 28 days.
The active principle is formulated at 4% in emulsion, and retinol is formulated at 0.15% in an emulsion.
The 2 formulations are tested on 2 groups of volunteers, against a placebo.
The tests are carried out and the influence of the active principle or of retinol on the appearance of cutaneous micro-relief, after bi-daily application for 28 days.

collagen I = test: Synthesis of collagen I in human fibroblasts by ELISA dosage; assay type: cell-based; settings: normal human fibroblasts; retinol at 10^-5 M
Method: The study is conducted on human fibroblasts by ELISA dosage. The fibroblasts are incubated in the presence or not of the active principle, of the fractions or of retinol at 10^−5 M. The results are shown in FIG. 2. Tests have been carried out on normal human fibroblasts by ELISA dosage. The fibroblasts were treated with retinol at 10^−5 M or with the active principle at 0.1%, 0.25% and 0.5%.

cutaneous micro-relief = test: Smoothing effect on cutaneous micro-relief of forearms in volunteers (profilometer); assay type: in vivo, human; settings: active principle 4% or retinol 0.15% in emulsion, bi-daily for 28 days, against placebo
Method: The active principle is formulated at 4% in emulsion, and retinol is formulated at 0.15% in an emulsion. The 2 formulations are tested on 2 groups of volunteers, against a placebo. The tests are carried out and the influence of the active principle or of retinol on the appearance of cutaneous micro-relief, after bi-daily application for 28 days. The analyses are carried out by observation of prints of the cutaneous micro-relief with the help of a profilometer associated with an image analyzer. The zones in question in this study are cutaneous zones of the forearms. The observed parameter is the mean rugosity of the micro-contour.

With CC1=C(/C=C/C(C)=C/C=C/C(C)=C/CO)C(C)(C)CCC1 [retinol] the irritating skin reactions (skin) was “reactions of the irritating skin type”, the “increase of the synthesis of collagen I” value (collagen I) was 171% and the “smoothing effect on the micro-contour (mean rugosity) relative to the comparison” value (cutaneous micro-relief) was 8%.

Reference: patent US20080249064A1, “Activities of an active principle obtained from powdered alfalfa seeds (Medicago sativa), active principle used and process of obtaining the same” (SOCIETE INDUSTRIELLE LIMOUSINE D'APPLICATION BIOLOGIQUE …, priority 2004, published 2008)
